The text below walks through data of US8920785B2, “Cosmetic or dermatological preparations with a content of one or more thiazole derivates” (Beiersdorf AG, priority 2010, dated 2014).

For this test, the target named is T1, human tyrosinase (Homo sapiens, UniProt P14679).
T1 sequence (P14679 19-529): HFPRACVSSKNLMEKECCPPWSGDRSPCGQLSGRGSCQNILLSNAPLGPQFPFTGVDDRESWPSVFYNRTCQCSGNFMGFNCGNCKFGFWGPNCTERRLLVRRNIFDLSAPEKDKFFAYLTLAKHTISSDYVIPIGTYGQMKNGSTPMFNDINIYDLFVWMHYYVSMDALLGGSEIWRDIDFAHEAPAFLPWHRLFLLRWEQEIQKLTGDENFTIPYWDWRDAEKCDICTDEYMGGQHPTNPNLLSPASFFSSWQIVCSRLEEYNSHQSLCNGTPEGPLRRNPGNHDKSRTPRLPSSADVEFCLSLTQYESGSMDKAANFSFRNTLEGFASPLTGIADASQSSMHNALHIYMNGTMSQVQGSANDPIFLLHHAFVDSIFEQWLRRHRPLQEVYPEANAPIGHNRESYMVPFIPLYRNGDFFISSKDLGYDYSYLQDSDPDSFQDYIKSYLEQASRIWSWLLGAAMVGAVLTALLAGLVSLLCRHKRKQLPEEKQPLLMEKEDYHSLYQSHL
Put plainly: Enzyme test: conversion of L-DOPA to L-dopaquinone by human tyrosinase (MBTH, absorption at 490 nm). Type of test: biochemical. The note with it: Concentration 100 μg/ml; substrate L-DOPA; read-out: Inhibition (% of control) of tyrosinase activity. The text has this: The efficacy of the thiazoles has been verified using an enzyme test by measuring the conversion of L-DOPA to L-dopaquinone by a human tyrosinase. In this method that is known from the literature (Winder, A. J. and Harris H., New assays for the tyrosine hydroxylase and dopa oxidase activities of tyrosinase. Eur. J. Biochem. (1991), 198, 317-26), the reaction product L-dopaquinone is reacted with MBTH (3-methyl-2-benzothiazoline hydrazone) is converted to form a pink-colored substance, the increase of which over time is measured by absorption at 490 nm. In table one, efficacy data for some of the claimed substances are shown by way of example. It may be concluded therefrom that the substances according to the invention are extremely effective pigmentation-inhibiting substances.
One may read the inhibition as the relative decrease from the control value, in per cent. On to `Oc1ccc(-c2csc(Nc3ncccn3)n2)c(O)c1` [Compound 1], for which the inhibition at 100 µg/mL was found to be 93.1%.
Then `Oc1ccc(-c2csc(Nc3ccccn3)n2)cc1` [Compound 21], with 87.6%; and `Oc1ccc(-c2csc(N3CCOCC3)n2)c(O)c1` [Compound 25], with 90.3%.
Then `Oc1ccc(-c2csc(NN3CCOCC3)n2)c(O)c1` [Compound 24], with 82.9%; and `Oc1ccc(-c2csc(Nc3ccccc3)n2)c(O)c1` [Compound 2], with 100%.
Then `Oc1ccc(-c2csc(Nc3ncccn3)n2)cc1` [Compound 20], with 61.3%; and `O=C(Nc1nc(-c2ccc(O)cc2O)cs1)c1ccccc1` [Compound 26], with 100%.
With `CN(c1ccccc1)c1nc(-c2ccc(O)cc2)cs1` [Compound 22], the inhibition at 100 µg/mL is 87.9%.
For `CCN(CC)CCNc1nc(-c2ccc(O)cc2O)cs1` [Compound 28], the inhibition at 100 µg/mL was determined as 80.5%.
